Assay results published in patent publication US11566044B2, “Disulfide bond containing compounds and uses thereof” (THE UNIVERSITY OF QUEENSLAND, priority 2017, dated 2023).

Assay: DTNB assay: stability of the S—S bond to 20% v/v piperidine in DMF (Fmoc-SPPS conditions)
Assay type: physicochemical
Conditions: 20% v/v piperidine in DMF for 6 h, absorbance at 308 and 412 nm
Source text: Prior to exploring further applications of the novel disulfide-bridged amino acid, the stability of its —S—S— bond to reagents/conditions employed during Fmoc-SPPS had to be established. For each deprotection step performed during peptide synthesis, a resin bound random amino acid is exposed to basic reagents with 20% v/v piperidine in DMF. —S—S— bond stability to these basic conditions was therefore trialled using a di-Boc protected disulfide bridged amino acid of the invention (compound 11), since the Boc protecting groups themselves would be stable to the basic conditions. […] Premature reduction of the disulfide-containing amino acid by piperidine would lead to the formation of free thiols that react with DTNB releasing NTB^2−, which can be readily identified spectrophotometrically at 412 nm.
DTNB (1 mg) was dissolved in 1 mL of methanol and a 1 mg/mL stock solution was prepared. A DTNB calibration curve was prepared by measurement of the absorbance (λmax=308 nm) over a range of concentrations (5, 10, 15, 20, and 25 μg/mL) in the presence of 20% v/v piperidine in DMF (100 μL). […]
Stability of the disulfide-bridged amino acid (compound 11) to basic conditions was assessed next, where it was first incubated with 20% v/v piperidine in DMF for up to 6 h and from that different concentrations of samples were prepared. […]

COC(=O)[C@H](CSSC(C)(C)CNC(=O)OC(C)(C)C)NC(=O)OC(C)(C)C [compound 11, Boc-Cys(S—SC(CH3)2CH2NH(Boc))—OCH3]
Base stability of the S—S bond (free thiols generated/detected): no free thiols were generated/detected
